Measurements reported in patent US20090124663A1, “Novel n-phenyl-piperidine derivatives and their use as monoamine neurotransmitter re-uptake inhibitors” (NeuroSearch A/S, priority 2005, published 2009).
Where a name gives a salt, the structure may show the parent alone.

How the values were obtained:
[1] = target: T1, reuptake of dopamine (DA) in synaptosomes (Rattus norvegicus, UniProt P23977); assay: Inhibition of dopamine reuptake in synaptosomes; assay type: biochemical
T1 construct: in synaptosomes as described in WO 97/16451; from tissue
T1 sequence (P23977 whole entry): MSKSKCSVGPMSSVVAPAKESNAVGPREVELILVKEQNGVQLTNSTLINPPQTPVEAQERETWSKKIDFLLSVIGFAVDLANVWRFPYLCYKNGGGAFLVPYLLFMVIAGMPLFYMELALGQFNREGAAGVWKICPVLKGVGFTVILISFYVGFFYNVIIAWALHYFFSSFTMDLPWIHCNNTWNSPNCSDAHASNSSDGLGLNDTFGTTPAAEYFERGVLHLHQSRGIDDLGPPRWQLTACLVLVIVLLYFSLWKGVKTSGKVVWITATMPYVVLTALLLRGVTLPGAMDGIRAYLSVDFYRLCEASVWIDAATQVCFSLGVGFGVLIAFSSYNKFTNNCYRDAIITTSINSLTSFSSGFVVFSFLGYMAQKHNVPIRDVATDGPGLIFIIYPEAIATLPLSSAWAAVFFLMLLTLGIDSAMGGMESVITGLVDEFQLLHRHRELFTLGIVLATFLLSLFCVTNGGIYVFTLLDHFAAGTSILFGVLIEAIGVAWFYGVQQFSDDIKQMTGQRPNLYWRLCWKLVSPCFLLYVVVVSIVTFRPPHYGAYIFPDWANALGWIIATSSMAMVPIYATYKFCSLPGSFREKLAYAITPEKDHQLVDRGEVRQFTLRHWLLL
Procedure: (§1) Compounds were tested for their ability to inhibit the reuptake of the monoamine neurotransmitters dopamine (DA) noradrenaline (NA) and serotonine (5-HT) in synaptosomes as described in WO 97/16451.
(§2) The test values are given as IC50 (the concentration (μM) of the test substance which inhibits the specific binding of ^3H-DA, ^3H-NA, or ^3H-5-HT by 50%).

[2] = target: T2, reuptake of serotonine (5-HT) in synaptosomes (Rattus norvegicus, UniProt P31652); assay: Inhibition of serotonin reuptake in synaptosomes; assay type: biochemical
T2 construct: in synaptosomes as described in WO 97/16451; from tissue
T2 sequence (P31652 whole entry): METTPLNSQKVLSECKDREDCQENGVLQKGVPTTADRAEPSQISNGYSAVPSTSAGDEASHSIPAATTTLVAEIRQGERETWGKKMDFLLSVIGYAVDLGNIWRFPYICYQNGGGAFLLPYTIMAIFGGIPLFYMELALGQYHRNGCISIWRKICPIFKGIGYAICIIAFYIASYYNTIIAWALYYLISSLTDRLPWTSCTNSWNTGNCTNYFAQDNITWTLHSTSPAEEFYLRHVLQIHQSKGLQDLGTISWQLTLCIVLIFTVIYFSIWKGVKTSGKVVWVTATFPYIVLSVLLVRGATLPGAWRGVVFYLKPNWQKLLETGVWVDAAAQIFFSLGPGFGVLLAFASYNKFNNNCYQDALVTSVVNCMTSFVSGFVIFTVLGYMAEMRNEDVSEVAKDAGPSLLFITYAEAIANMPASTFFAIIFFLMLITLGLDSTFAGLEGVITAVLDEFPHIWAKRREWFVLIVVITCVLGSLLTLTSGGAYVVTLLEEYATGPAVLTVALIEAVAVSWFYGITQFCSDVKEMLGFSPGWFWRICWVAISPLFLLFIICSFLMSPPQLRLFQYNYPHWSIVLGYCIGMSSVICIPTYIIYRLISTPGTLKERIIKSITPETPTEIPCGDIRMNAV
Procedure: as §1, §2

[3] = target: T3, reuptake of noradrenaline (NA) in synaptosomes (Rattus norvegicus, UniProt Q9WTR4); assay: Inhibition of noradrenaline reuptake in synaptosomes; assay type: biochemical
T3 construct: in synaptosomes as described in WO 97/16451; from tissue
T3 sequence (Q9WTR4 1-597): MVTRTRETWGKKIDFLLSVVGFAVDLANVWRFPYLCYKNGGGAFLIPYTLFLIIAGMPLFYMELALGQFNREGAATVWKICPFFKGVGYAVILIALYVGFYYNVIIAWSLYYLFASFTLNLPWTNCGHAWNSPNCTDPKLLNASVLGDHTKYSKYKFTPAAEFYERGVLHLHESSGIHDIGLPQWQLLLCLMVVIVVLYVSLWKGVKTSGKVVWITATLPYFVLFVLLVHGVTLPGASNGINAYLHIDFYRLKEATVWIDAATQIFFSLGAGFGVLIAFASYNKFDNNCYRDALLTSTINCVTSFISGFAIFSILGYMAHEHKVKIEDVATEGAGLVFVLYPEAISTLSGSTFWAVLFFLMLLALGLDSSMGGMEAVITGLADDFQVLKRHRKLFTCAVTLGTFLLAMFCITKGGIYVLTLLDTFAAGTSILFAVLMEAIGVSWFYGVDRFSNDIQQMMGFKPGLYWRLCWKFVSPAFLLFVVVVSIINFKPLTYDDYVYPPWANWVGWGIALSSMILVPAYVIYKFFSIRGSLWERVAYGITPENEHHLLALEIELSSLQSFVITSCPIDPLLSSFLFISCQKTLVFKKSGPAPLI
Procedure: as §1, §2

| SMILES | IC50 [1] | IC50 [2] | IC50 [3] | melting point |
| --- | --- | --- | --- | --- |
| CNC1CCN(c2ccc(Cl)c(Cl)c2)CC1 [1st compound of method B, [1-(3,4-Dichloro-phenyl)-piperidin-4-yl]-methyl-amine] | 380 nM | 27 nM | 200 nM | – |
| NC1CCN(c2ccc(Cl)c(Cl)c2)CC1 (as salt: hydrochloric acid salt) [1st compound of method A, 1-(3,4-Dichloro-phenyl)-piperidin-4-ylamine] | – | – | – | > 250 °C (dec.) |
| CNC1CCN(c2ccc(Cl)c(Cl)c2)CC1 (as salt: hydrochloric acid salt) [1st compound of method B, [1-(3,4-Dichloro-phenyl)-piperidin-4-yl]-methyl-amine] | – | – | – | 240 to 244 °C |
| NC1CCN(c2ccc(Cl)c(Cl)c2)CC1 [1st compound of method A, 1-(3,4-Dichloro-phenyl)-piperidin-4-ylamine] | 400 nM | 27 nM | 150 nM | – |
